What was measured:
Format in all cases: functional
Ipomoea grandifolia [1] = test: Phytotoxic activity against Ipomoea grandifolia assessed as weight of root at 5.0 x 10^-4 mol/l measured 21 days after seed sowing under greenhouse trials (reference value: 18.4 mg)
Ipomoea grandifolia [2] = test: Phytotoxic activity against Ipomoea grandifolia assessed as root growth inhibition at 5.0 x 10^-4 mol/l measured 21 days after seed sowing under greenhouse trials (reference value: 0.0%); details: 504 h
Sorghum bicolor [3] = test: Phytotoxic activity against Sorghum bicolor assessed as root growth inhibition at 5.0 x 10^-4 mol/l measured 15 days after seed sowing under greenhouse trials (reference value: 0.0%); details: 360 h
Urochloa decumbens [4] = test: Phytotoxic activity against Urochloa decumbens assessed as weight of root at 5.0 x 10^-4 mol/l measured 21 days after seed sowing under greenhouse trials (reference value: 21.2 mg)
Sorghum bicolor [5] = test: Phytotoxic activity against Sorghum bicolor seedlings assessed as inhibition of radicle growth at 5x10'-4 mol/l at 28 +/-1 degC after 48 hr by acid-washed sand based radicle elongation assay (reference value: 0.0%)
Cucumis sativus [6] = test: Phytotoxic activity against Cucumis sativus (cucumber) assessed as weight of aerial parts at 5.0 x 10^-4 mol/l measured 15 days after seed sowing under greenhouse trials (reference value: 47.0 mg)
Cucumis sativus [7] = test: Phytotoxic activity against Cucumis sativus (cucumber) assessed as root growth inhibition at 5.0 x 10^-4 mol/l measured 15 days after seed sowing under greenhouse trials (reference value: 0.0%); details: 360 h
Cucumis sativus [8] = test: Phytotoxic activity against Cucumis sativus (cucumber) seedlings assessed as radicle length at 5x10'-4 mol/l at 28 +/-1 degC after 48 hr by acid-washed sand based radicle elongation assay (reference value: 4.8 cm)
Sorghum bicolor [9] = test: Phytotoxic activity against Sorghum bicolor assessed as weight of aerial parts at 5.0 x 10^-4 mol/l measured 15 days after seed sowing under greenhouse trials (reference value: 19.0 mg)
Sorghum bicolor [10] = test: Phytotoxic activity against Sorghum bicolor assessed as aerial part growth inhibition at 5.0 x 10^-4 mol/l measured 15 days after seed sowing under greenhouse trials (reference value: 0.0%); details: 360 h
Cucumis sativus [11] = test: Phytotoxic activity against Cucumis sativus (cucumber) assessed as aerial part growth inhibition at 5.0 x 10^-4 mol/l measured 15 days after seed sowing under greenhouse trials (reference value: 0.0%); details: 360 h
Cucumis sativus [12] = test: Phytotoxic activity against Cucumis sativus (cucumber) seedlings assessed as germination at 5x10'-4 mol/l at 28 +/-1 degC after 48 hr by acid-washed sand based radicle elongation assay (reference value: 100%)
Sorghum bicolor [13] = test: Phytotoxic activity against Sorghum bicolor seedlings assessed as radicle length at 5x10'-4 mol/l at 28 +/-1 degC after 48 hr by acid-washed sand based radicle elongation assay (reference value: 5.1 cm)
Cucumis sativus [14] = test: Phytotoxic activity against Cucumis sativus (cucumber) assessed as weight of roots at 5.0 x 10^-4 mol/l measured 15 days after seed sowing under greenhouse trials (reference value: 31.0 mg)
Ipomoea grandifolia [15] = test: Phytotoxic activity against Ipomoea grandifolia assessed as weight of aerial parts at 5.0 x 10^-4 mol/l measured 21 days after seed sowing under greenhouse trials (reference value: 17.8 mg)
Urochloa decumbens [16] = test: Phytotoxic activity against Urochloa decumbens assessed as root growth inhibition at 5.0 x 10^-4 mol/l measured 21 days after seed sowing under greenhouse trials (reference value: 0.0%); details: 504 h
Urochloa decumbens [17] = test: Phytotoxic activity against Urochloa decumbens assessed as aerial part growth inhibition at 5.0 x 10^-4 mol/l measured 21 days after seed sowing under greenhouse trials (reference value: 0.0%); details: 504 h
Sorghum bicolor [18] = test: Phytotoxic activity against Sorghum bicolor assessed as weight of roots at 5.0 x 10^-4 mol/l measured 15 days after seed sowing under greenhouse trials (reference value: 14.0 mg)
Urochloa decumbens [19] = test: Phytotoxic activity against Urochloa decumbens assessed as weight of aerial parts at 5.0 x 10^-4 mol/l measured 21 days after seed sowing under greenhouse trials (reference value: 22.0 mg)
Sorghum bicolor [20] = test: Phytotoxic activity against Sorghum bicolor seedlings assessed as germination at 5x10'-4 mol/l at 28 +/-1 degC after 48 hr by acid-washed sand based radicle elongation assay (reference value: 100%)
Ipomoea grandifolia [21] = test: Phytotoxic activity against Ipomoea grandifolia assessed as aerial part growth inhibition at 5.0 x 10^-4 mol/l measured 21 days after seed sowing under greenhouse trials (reference value: 0.0%); details: 504 h
Cucumis sativus [22] = test: Phytotoxic activity against Cucumis sativus (cucumber) seedlings assessed as inhibition of radicle growth at 5x10'-4 mol/l at 28 +/-1 degC after 48 hr by acid-washed sand based radicle elongation assay (reference value: 0.0%)

Compound	Activity (Ipomoea grandifolia [1])	inhibition at 500 µM (Ipomoea grandifolia [2])	inhibition at 500 µM (Sorghum bicolor [3])	Activity (Urochloa decumbens [4])	inhibition at 500 µM (Sorghum bicolor [5])	Activity (Cucumis sativus [6])	inhibition at 500 µM (Cucumis sativus [7])	Activity (Cucumis sativus [8])	Activity (Sorghum bicolor [9])	inhibition at 500 µM (Sorghum bicolor [10])	inhibition at 500 µM (Cucumis sativus [11])	germination % at 500 µM (Cucumis sativus [12])	Activity (Sorghum bicolor [13])	Activity (Cucumis sativus [14])	Activity (Ipomoea grandifolia [15])	inhibition at 500 µM (Urochloa decumbens [16])	inhibition at 500 µM (Urochloa decumbens [17])	Activity (Sorghum bicolor [18])	Activity (Urochloa decumbens [19])	germination % at 500 µM (Sorghum bicolor [20])	further results
O=C1C2CCCCC1C1OC2C2OOC1O2	7.4 mg	53.6%	26.4%	8.3 mg	59.7%	34.1 mg	77.8%	1.5 cm	10.4 mg	45.1%	27.5%	100%	2.1 cm	6.9 mg	9.6 mg	60.2%	44.1%	10.3 mg	12.3 mg	96%	inhibition at 500 µM (Ipomoea grandifolia [21]): 46.5%; inhibition at 500 µM (Cucumis sativus [22]): 68.5%
CCC12OC(C3OOC1O3)C1CCCCC2C1=O (mixture of isomers)	9.1 mg	43%	27.1%	4.6 mg	52.5%	24.4 mg	75.2%	2.1 cm	10.3 mg	45.4%	48%	96%	2.4 cm	7.7 mg	9.4 mg	77.9%	74.4%	10.2 mg	5.7 mg	100%	inhibition at 500 µM (Ipomoea grandifolia [21]): 47.7%; inhibition at 500 µM (Cucumis sativus [22]): 57.2%
CC12OC(C)(C3OOC1O3)C1CCCCC2C1=O (mixture of isomers)	5.7 mg	64.6%	18.2%	3.6 mg	47.1%	26.4 mg	79.7%	1.5 cm	8.8 mg	53.9%	43.8%	100%	2.7 cm	6.3 mg	6.2 mg	83%	79.7%	11.5 mg	4.4 mg	100%	inhibition at 500 µM (Ipomoea grandifolia [21]): 65.4%; inhibition at 500 µM (Cucumis sativus [22]): 69.1%
